The results in this text go back to article PMC6934184, “Selective DNA-PKcs inhibition extends the therapeutic index of localized radiotherapy and chemotherapy” (The Journal of Clinical Investigation, 2019).

The structures appear in SMILES notation.

What is called inhibition is the drop in the measured response relative to a control, in per cent. Low values mean a weak effect, high ones a strong effect.

The experiment deals with T1, CAMK1D (CaMKI delta) (Homo sapiens, UniProt Q8IU85).
T1 construct: purchased Thermo Fisher Scientific (Life Technologies) SelectScreen
T1 sequence (Q8IU85 whole entry): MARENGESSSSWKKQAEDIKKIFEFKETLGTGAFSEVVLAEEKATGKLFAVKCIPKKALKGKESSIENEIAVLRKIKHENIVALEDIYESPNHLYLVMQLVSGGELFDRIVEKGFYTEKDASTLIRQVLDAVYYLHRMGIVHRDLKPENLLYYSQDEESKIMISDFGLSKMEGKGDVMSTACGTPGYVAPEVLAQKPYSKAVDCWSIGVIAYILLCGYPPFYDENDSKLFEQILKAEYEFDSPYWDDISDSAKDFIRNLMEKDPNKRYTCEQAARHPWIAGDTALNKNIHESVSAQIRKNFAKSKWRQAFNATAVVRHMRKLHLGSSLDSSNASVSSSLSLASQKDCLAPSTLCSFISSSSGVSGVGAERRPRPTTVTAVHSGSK
The experiment in a line: SelectScreen Z'LYTE. Format: biochemical. In a few lines:
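SelectScreen broad panel; activity (Z'LYTE, Adapta) plus binding formats. ATP: Km app for CSF1R Z'LYTE; 10 for CAMK1 Adapta. Readout = % per kinase.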

In the case of `CN(C(=O)CN1CCOCC1)c1ccc2sc3c(-c4cccc5c(=O)cc(N6CC7CCC(C6)O7)oc45)cccc3c2c1` [NU5455], the inhibition at 1 µM came out at 4.1%.
